Measured values as given in patent US20150045553A1, “PHENYLTRIAZOLE DERIVATIVE” (TOSHO PHARMACEUTICAL CO., LTD, priority 2011, published 2015).
pIC50: −log10 of the molar value. Read-outs that look alike come from different tables or passages of the source.

Key:
[1] = target: T1, H3 receptor (Rattus norvegicus, UniProt Q9QYN8); test: Rat H3 receptor binding test (N-α-methyl[3H]histamine, frontal cortex membrane fraction); details: N-α-methyl[3H]histamine 0.75 nM, room temperature, an hour
T1 construct: The frontal cortex dissected from rats was homogenized; from tissue; host or cells: rat frontal cortex membrane fraction
T1 sequence (Q9QYN8 whole entry): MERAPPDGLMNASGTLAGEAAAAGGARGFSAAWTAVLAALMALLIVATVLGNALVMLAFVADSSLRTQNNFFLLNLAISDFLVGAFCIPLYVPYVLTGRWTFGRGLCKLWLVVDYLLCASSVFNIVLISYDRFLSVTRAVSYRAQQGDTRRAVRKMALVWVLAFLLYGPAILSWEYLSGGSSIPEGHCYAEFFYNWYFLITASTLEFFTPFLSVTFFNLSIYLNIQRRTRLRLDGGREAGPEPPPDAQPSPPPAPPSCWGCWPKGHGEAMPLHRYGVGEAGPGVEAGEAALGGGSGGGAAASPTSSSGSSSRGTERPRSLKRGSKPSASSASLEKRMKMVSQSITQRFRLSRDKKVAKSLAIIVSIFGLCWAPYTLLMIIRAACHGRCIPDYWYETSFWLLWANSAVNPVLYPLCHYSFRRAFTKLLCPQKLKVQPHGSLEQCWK
Procedure: (Test 1: Rat H3 Receptor Binding Test)
The frontal cortex dissected from rats was homogenized with a Teflon (registered trademark) homogenizer in a 50 mM Tris-HCl buffer solution (pH 7.4) containing a protease inhibitor (Complete EDTA-free; Roche Diagnostics) and 5 mM EDTA. The homogenate was centrifuged at 48,000×g for 15 minutes. The supernatant was removed and the pellet was suspended in a 50 mM Tris-HCl buffer solution (pH 7.4) containing 5 mM EDTA and centrifuged at 48,000×g for 15 minutes. The supernatant was removed and the pellet was suspended in a 50 mM Tris-HCl buffer solution (pH 7.4) containing 5 mM EDTA to give a membrane fraction. The membrane fraction (the protein content in the final reaction mixture: 75 μg), N-α-methyl[^3H]histamine (PerkinElmer; final concentration: 0.75 nM) and a test drug were mixed and subjected to reaction at room temperature for an hour. After the end of the reaction, the reaction mixture was suction filtered through a 96-well GF/C filter plate pretreated with 0.3% polyethyleneimine; the filters were then washed five times with a 50 mM Tris-HCl buffer solution (pH 7.4) containing 5 mM EDTA. After the washing, the filters were dried and a scintillator was added to measure the residual radioactivity on the filter with TopCount (PerkinElmer).
The residual radioactivity in the presence of 10 μM thioperamide was taken as indicative of nonspecific binding and the difference from the residual radioactivity in the absence of thioperamide was taken as indicative of specific binding. Each of the test drugs was dissolved and diluted in DMSO at varying concentrations to plot a dose-response curve from the corresponding residual radioactivities; the concentration of test drug that inhibited the specific binding by 50% (IC50) was determined from this curve.

[2] = target: T2, histamine H3 receptor (Rattus norvegicus, UniProt Q9QYN8); test: [35S]GTP-γ-S binding test (R(−)-α-methyl histamine stimulated, frontal cortex membrane fraction); assay type: biochemical; details: R(−)-α-methyl histamine 300 nM, [35S]GTP-γ-S 0.3 nM
T2 construct: The frontal cortex dissected from rats was homogenized; from tissue; host or cells: rat frontal cortex membrane fraction
T2 sequence (Q9QYN8 whole entry): as above
Procedure: The frontal cortex dissected from rats was homogenized with a Teflon (registered trademark) homogenizer in a 30 mM Tris-HCl buffer solution (pH 7.4) containing 2.5 mM calcium chloride dihydrate. The homogenate was centrifuged at 48,000×g for 15 minutes. The supernatant was removed and the pellet was suspended in a 30 mM Tris-HCl buffer solution (pH 7.4) containing 2.5 mM calcium chloride dihydrate and centrifuged at 48,000×g for 15 minutes. The supernatant was removed and the pellet was suspended in a 30 mM Tris-HCl buffer solution (pH 7.4) containing 2.5 mM calcium chloride dihydrate and after incubation at 37° C. for 30 minutes, the suspension was centrifuged at 48,000×g for 15 minutes. The resulting supernatant was removed and the pellet was suspended in a 20 mM HEPES buffer solution (pH 7.4) containing 100 mM sodium chloride and 10 mM magnesium chloride to give a membrane fraction. […] After the washing, the filters were dried and a scintillator was added to measure the residual radioactivity on the filter with TopCount (PerkinElmer).
The residual radioactivity in the absence of R(−)-α-methyl histamine was taken as indicative of nonspecific binding and the difference from the residual radioactivity in the presence of R(−)-α-methyl histamine was taken as indicative of specific binding. […]

[3] = Rat in vivo pharmacokinetic study (distribution among plasma, brain and cerebrospinal fluid); details: SD rats, single oral administration, 3 mg/kg, an hour after the administration
Procedure: (Test 3: Rat in vivo pharmacokinetic study)
SD rats were given a single oral administration of Compound No. 8, 19 or 22 at a dose of 3 mg/kg and an hour after the administration, the compound's distribution among the plasma, brain, and cerebrospinal fluid was checked. Quantification was effected by a high-performance liquid chromatography/tandem mass spectrometer API 4000 (LC-MS/MS; AB Sciex).

[4] = target: T3, P-glycoprotein (human MDR1) (Homo sapiens, UniProt P08183); test: P-glycoprotein substrate recognition test (LLC-GA5-COL300 cells, transwell); assay type: in vitro ADME; details: LLC-PK1, ratio of membrane permeation coefficients for apical→basal and basal→apical directions
T3 construct: expressed in transfected cells; host or cells: LLC-GA5-COL300 (LLC-PK1 pig kidney epithelial cells expressing human MDR1)
T3 sequence (P08183 whole entry): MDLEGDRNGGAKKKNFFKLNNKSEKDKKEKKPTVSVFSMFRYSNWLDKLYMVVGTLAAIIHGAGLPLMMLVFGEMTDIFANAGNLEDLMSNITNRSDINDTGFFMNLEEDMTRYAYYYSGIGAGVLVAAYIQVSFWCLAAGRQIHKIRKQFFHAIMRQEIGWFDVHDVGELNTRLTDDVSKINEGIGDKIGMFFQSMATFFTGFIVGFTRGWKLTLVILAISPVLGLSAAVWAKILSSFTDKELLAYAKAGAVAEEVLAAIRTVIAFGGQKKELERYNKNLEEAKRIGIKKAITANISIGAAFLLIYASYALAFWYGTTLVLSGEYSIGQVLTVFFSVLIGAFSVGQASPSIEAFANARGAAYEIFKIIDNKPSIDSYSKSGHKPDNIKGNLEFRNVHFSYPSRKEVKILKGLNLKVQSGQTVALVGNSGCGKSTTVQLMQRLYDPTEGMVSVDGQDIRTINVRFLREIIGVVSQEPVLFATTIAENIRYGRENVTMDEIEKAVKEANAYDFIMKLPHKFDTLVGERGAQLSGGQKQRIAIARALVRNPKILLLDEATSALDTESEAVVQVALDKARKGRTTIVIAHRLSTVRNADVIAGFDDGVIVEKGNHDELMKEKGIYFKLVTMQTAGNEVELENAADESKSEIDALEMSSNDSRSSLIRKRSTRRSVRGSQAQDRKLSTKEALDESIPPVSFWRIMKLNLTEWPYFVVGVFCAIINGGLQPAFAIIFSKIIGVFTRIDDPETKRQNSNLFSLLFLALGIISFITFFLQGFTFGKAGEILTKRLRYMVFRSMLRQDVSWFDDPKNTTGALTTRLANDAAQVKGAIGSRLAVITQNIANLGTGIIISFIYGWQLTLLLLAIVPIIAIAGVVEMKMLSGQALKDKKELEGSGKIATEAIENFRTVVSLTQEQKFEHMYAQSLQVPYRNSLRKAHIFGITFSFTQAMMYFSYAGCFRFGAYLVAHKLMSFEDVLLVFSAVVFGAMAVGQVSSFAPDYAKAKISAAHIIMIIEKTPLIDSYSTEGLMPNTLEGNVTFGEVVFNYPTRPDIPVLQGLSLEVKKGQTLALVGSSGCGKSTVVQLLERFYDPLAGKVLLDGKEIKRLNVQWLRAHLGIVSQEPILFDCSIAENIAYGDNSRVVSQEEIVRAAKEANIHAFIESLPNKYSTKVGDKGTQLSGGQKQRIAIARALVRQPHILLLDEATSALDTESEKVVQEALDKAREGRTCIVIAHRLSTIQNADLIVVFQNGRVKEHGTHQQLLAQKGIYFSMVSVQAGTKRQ
Procedure: (Test 4: P-Glycoprotein Substrate Recognition Test)
LLC-GA5-COL300 cells (Human MDR1 expressing system derived from pig kidney derived, cultured renal epithelial cell line LLC-PK1) were cultured on a transwell. Immediately before the test, the culture medium was replaced by Hank's balanced salt solution (HBSS) and the test was then conducted. A solution of an assay compound adjusted to a final concentration of 10 μM was added to the donor side of LLC-GA5-COL300 cells and after the passage of a predetermined period of time, a specified quantity of […] was sampled from the acceptor side. The concentration of the assay compound in the sample was measured by LC-MS/MS. From the amounts of the compound that accumulated and passed into the acceptor side, membrane permeation coefficients (×10^−6 cm/sec) were calculated for apical→basal and basal→apical directions and their relative ratio (efflux ratio) was determined to evaluate the P-glycoprotein substrate recognition.

[5] = brain, read-out: intracerebral concentration
[6] = brain/plasma, read-out: brain/plasma movement ratio
[7] = cerebrospinal fluid, read-out: cerebrospinal fluid concentration
[8] = cerebrospinal fluid/plasma, read-out: cerebrospinal fluid/plasma movement ratio

SMILES | pIC50 [1] | pIC50 [2] | concentration at 1 h [3, 5] [ng/g] | Kp at 1 h [3, 6] | concentration at 1 h [3, 7] [µg/mL] | Kp at 1 h [3, 8] | efflux ratio at 10 μM [4]
O=C(c1cn(-c2ccc(OC3CCN(C4CCC4)CC3)cc2)nn1)N1CCCC1 [Compound No. 8, (1-{4-[(1-cyclobutylpiperidin-4-yl)oxy]phenyl}-1H-1,2,3-triazol-4-yl)(pyrrolidin-1-yl)methanone] | 8.74 | ≥ 7.00 | 45.7 | 3 | 0.0029 | 0.2 | 1
CNC(=O)c1cn(-c2ccc(OC3CCN(C4CCC4)CC3)cc2)nn1 [Compound No. 19, 1-{4-[(1-cyclobutylpiperidin-4-yl)oxy]phenyl}-N-methyl-1H-1,2,3-triazole-4-carboxamide] | 7.66 | – | 820 | 4.4 | 0.134 | 0.7 | 0.7
OCc1cn(-c2ccc(OC3CCN(C4CCC4)CC3)cc2)nn1 [Compound No. 22, (1-{4-[(1-cyclobutylpiperidin-4-yl)oxy]phenyl}-1H-1,2,3-triazol-4-yl)methanol] | 8.27 | – | 209 | 1.5 | 0.0676 | 0.5 | 1.1
C[C@@H]1CCCN1CCCOc1ccc(-n2cc(C(=O)N3CCCC3)nn2)cc1 [compound 15, [1-(4-{3-[(2R)-2-methylpyrrolidin-1-yl]propoxy}phenyl)-1H-1,2,3-triazol-4-yl](pyrrolidin-1-yl)methanone] | 8.05 | – | – | – | – | – | –
C[C@@H]1CCCN1CCCOc1ccc(-n2cc(C(=O)N3CCC3)nn2)cc1 [compound 16, azetidin-1-yl[1-(4-{3-[(2R)-2-methylpyrrolidin-1-yl]propoxy}phenyl)-1H-1,2,3-triazol-4-yl]methanone] | 7.80 | – | – | – | – | – | –
